The text below walks through data of patent US20150056310A1, “COSMETIC METHOD FOR INCREASING COLLAGEN EXPRESSION IN SKIN COMPRISING TOPICALLY APPLYING AN EXTRACT OF QUASSIA AMARA” (BASF Beauty Care Solutions France S.A.S., priority 2013, published 2015).

For this test, the system named is type I collagen protein expression in dermal fibroblast cells. The experiment in a line: Increase in type I collagen protein expression in dermal fibroblast cells cultured in vitro (immunolabelling, confocal microscopy, image analysis). Type of test: cell-based, human. To be noted: 3 days, dermal fibroblasts, ratio relative to nontreated cells (NT = 1), mean of 4 assays. The procedure:
A Q. amara wood extract at 5% (w/w) obtained according to Example 1a) was tested on dermal fibroblast cells cultured in vitro. The extract was tested at final concentrations of 0.01% and 0.05% by volume in the culture medium. Preferentially, the final concentration was 0.01% (v/v).
Specifically, dermal fibroblasts from the abdomen of a donor were seeded into a culture chamber (8-well) and amplified in FGM (Fibroblast Growth Media) culture medium containing an antibiotic, normocin, for 3 or 4 days until confluence, the cell stage for which 100% of the cultured cells adhere to one another, forming a uniform cell layer.
The confluent cells were then treated in this same culture medium for 3 days with a Q. amara wood extract at a final concentration in the culture medium of 0.01% or 0.05% (v/v) (Table 1). Other control active ingredients were tested (Table 1): vitamin C (50 μg/ml) or retinaldehyde (1 μM) or TGFβ1 (1 ng/ml) (Transforming Growth Factor β1).
The culture media (FGM) containing the dermal fibroblast cells treated with an active agent, or the nontreated culture media, contained moreover 5 μg/ml of vitamin C, enabling the newly synthesized collagen to be secreted out of the cell.
After 3 days of incubation, the cells were rinsed with a phosphate buffered saline (PBS) buffer containing calcium, magnesium and antibiotics, and then fixed in cold methanol for 10 minutes with a view to performing immunolabelling.
An anti-type I collagen antibody was added to the medium with a view to performing immunolabelling.
The increase in type I collagen protein expression was observed by confocal microscopy (LSM 700, Zeiss, LePecq, France) and quantified by image analysis (FIG. 1).
The type I collagen protein expression was calculated as a ratio relative to a theoretical expression equal to 1 in the case of nontreated fibroblast cells (NT). The mean protein expression was obtained through the mean of 4 distinct assays (Table 1).

In the case of `CC1=C(/C=C/C(C)=C/C=C/C(C)=C/C=O)C(C)(C)CCC1` [Retinaldehyde, retinaldehyde], under “1 μM”, the “Mean increase in type I collagen protein expression” value (from here on “Mean increase”) is on record as 2.06. As for `O=C1O[C@H]([C@@H](O)CO)C(O)=C1O` [Vitamin C, vitamin C], the “Mean increase” value (50 μg/ml) came out at 2.31. For the compound “TGFβ: Transforming Growth Factor β1, control active ingredient”, the “Mean increase” value (1 ng/ml) was found to be 1.42.
